The target in the test is T1, Amine oxidase [flavin-containing] B (Homo sapiens, UniProt P27338).
T1 sequence (P27338 whole entry): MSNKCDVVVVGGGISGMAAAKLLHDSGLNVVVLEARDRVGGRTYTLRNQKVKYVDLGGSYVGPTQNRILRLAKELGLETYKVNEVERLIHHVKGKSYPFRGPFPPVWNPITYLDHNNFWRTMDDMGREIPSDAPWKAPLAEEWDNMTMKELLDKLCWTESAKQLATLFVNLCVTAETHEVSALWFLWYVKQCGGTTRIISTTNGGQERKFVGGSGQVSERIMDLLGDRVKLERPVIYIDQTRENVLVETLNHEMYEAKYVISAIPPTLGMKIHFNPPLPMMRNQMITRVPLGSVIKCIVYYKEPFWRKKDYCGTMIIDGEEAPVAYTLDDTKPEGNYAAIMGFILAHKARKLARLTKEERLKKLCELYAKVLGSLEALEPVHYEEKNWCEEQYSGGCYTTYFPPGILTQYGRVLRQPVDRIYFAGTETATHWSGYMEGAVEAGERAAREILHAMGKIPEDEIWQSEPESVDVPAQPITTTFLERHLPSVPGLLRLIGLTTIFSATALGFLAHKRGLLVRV
The test is described as follows: Inhibition of human MAO-B using tyramine as substrate by amplex red assay.

Molecules are shown by their SMILES. pIC50: −log10 of the molar value.

For `Cc1ccc(C2=NO[C@@H](c3ccc(Cl)c(Cl)c3)C2)cc1`, the negative-log IC50 (pIC50) (in general, the negative decadic logarithm of the IC50, by convention in mol/L) was 8.72.

The values above are taken from BindingDB's records for PubMed 32942081 (Jamia Millia Islamia, 2020).
